Experimental data as given in patent publication US7098217B2, “3,7-dihydro-purine-2,6-dione derivatives as CRF receptor ligands” (Bristol-Myers Squibb Company, priority 2001, dated 2006).

Row | Compound | melting point
1 | CCc1nc2c(c(=O)n(C)c(=O)n2-c2ccc(Cl)cc2Cl)n1C(CC)CC [Example 1, 3-(2,4-dichlorophenyl)-8-ethyl-1-methyl-7-(3-pentyl)-3,7-dihydro-1H-purine-2,6-dione] | 186 to 187 °C
2 | CCCC(CCC)n1c(CC)nc2c1c(=O)n(C)c(=O)n2-c1ccc(Cl)cc1Cl [Example 2, 3-(2,4-dichlorophenyl)-8-ethyl-7-(4-heptyl)-1-methyl-3,7-dihydro-1H-purine-2,6-dione] | 185 to 186 °C
3 | C=CCC(CC=C)n1c(CC)nc2c1c(=O)n(C)c(=O)n2-c1ccc(Cl)cc1Cl [Example 4, 7-(1-allyl-3-butenyl)-3-(2,4-dichlorophenyl)-8-ethyl-1-methyl-3,7-dihydro-1H-purine-2,6-dione] | 145 to 146 °C
4 | CCC(CC)n1cnc2c1c(=O)n(C)c(=O)n2-c1ccc(Cl)cc1Cl [Example 5, 3-(2,4-dichlorophenyl)-1-methyl-7-(3-pentyl)-3,7-dihydro-1H-purine-2,6-dione] | 158 to 159 °C
5 | CCc1nc2c(c(=O)n(C)c(=O)n2-c2ccc(Cl)cc2Cl)n1Cc1ccc(OC)cc1 [Example 7, 3-(2,4-dichlorophenyl)-8-ethyl-7-(4-methoxybenzyl)-1-methyl-3,7-dihydro-1H-purine-2,6-dione] | 209 to 210 °C
6 | CCCC(CCC)n1c(CC)nc2c1c(=O)n(C)c(=O)n2-c1c(C)cc(C)cc1C [Example 79, 8-ethyl-7-(4-heptyl)-1-methyl-3-(2,4,6-trimethylphenyl)-3,7-dihydro-1H-purine-2,6-dione] | 195 to 195.5 °C
7 | CCCC(CCC)n1c(CC)nc2c1c(=O)n(C)c(=O)n2-c1c(OC)ccnc1C [Example 117, 8-ethyl-7-(4-heptyl)-3-(4-methoxy-2-methylpyrid-3-yl)-1-methyl-3,7-dihydro-1H-purine-2,6-dione] | 124 to 126 °C
